These results are taken from patent US20100184815A1 (priority 2008, published 2010).

This test addresses T1, Full Length hPPARβ/δ (Homo sapiens, UniProt Q03181).
T1 construct: Full Length; expressed in transfected cells; host or cells: Cos cells
T1 sequence (Q03181 1-441): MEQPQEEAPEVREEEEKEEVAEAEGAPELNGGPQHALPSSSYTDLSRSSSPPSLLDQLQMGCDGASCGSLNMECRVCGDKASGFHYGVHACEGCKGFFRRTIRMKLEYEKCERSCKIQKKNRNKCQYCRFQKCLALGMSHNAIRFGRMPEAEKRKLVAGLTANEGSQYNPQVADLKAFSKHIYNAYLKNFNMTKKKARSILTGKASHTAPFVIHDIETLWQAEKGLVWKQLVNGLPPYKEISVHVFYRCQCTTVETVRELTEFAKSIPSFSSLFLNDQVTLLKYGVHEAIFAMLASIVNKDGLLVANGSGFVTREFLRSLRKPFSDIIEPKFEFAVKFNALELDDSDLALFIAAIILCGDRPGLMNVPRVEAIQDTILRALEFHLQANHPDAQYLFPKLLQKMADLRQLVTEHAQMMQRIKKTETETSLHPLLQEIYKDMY
Put plainly: Full length hPPARβ/δ transfection assay. In kind it is cell-based. Particulars: full length receptor; scale 1-5; read-out: Full Length hPPAR β/δ EC50 (scaled number). The method, then:
Transient transfection assays. Cos cells were seeded in 60-mm dishes at a density of 5.5×10^5 cells/dish in Dulbecco's modified Eagle's medium (DMEM) supplemented with 10% fetal calf serum (FCS) and incubated at 37° C. for 24 hours before transfection. Cells were transfected in Opti-MEM (Gibco; Invitrogen, Carlsbad, Calif.) without FCS for 3 hours at 37° C., using polyethylenimine, with reporter and expression plasmids. The plasmid pBluescript (Stratagene, La Jolla, Calif.) was used as carrier DNA to set the final amount of DNA to 5.5 μg/dish. The pCMV-b-galactosidase expression plasmid was cotransfected as a control for transfection efficiency. Transfection was stopped by the addition of DMEM supplemented with 10% FCS, and cells were then incubated at 37° C. After 16 hours, cells were trypsinized and seeded in 96-well plates at the density of 2×10^4 cells/well and incubated for 6 hours in 10% FCS-containing DMEM. Cells were then incubated for 24 hours in DMEM containing 0.2% FCS and increasing concentrations of the compound tested or vehicle (DMSO). At the end of the experiment, cells were washed once with ice-cold PBS, lysed and the luciferase and b-galactosidase assays were performed in a luminometer and spectrophotomer. Transfection efficiencies were normalized with the b-galactosidase activity assay. Half-maximal effective concentration (EC50) was estimated using Prism software (GraphPad). All transfection experiments were performed at least three times.
In the following tables, proprietary compound EC50 values for hPPAR α, β, δ and γ are shown. The EC50 value is the concentration of a drug that induces a response halfway between the baseline and maximum, and is commonly used as a measure of drug potency. EC50 values are reported on a scale of 1 through 5, wherein the value scale is defined for each receptor as follows: […]
For `CCCCCCCCn1c(COC(=O)c2ccc(SC(C)(C)C(=O)O)cc2)nn(Cc2ccc(C)cc2)c1=O` [Compound 161, 2-methyl-2-(4-(((1-(4-methylbenzyl)-4-octyl-5-oxo-4,5-dihydro-1H-1,2,4-triazol-3-yl)methoxy)carbonyl)phenylthio)propanoic acid], the EC50 was in the range of 201 to 999 nM.

Take `CCCCCCn1c(COC(=O)c2ccc(SC(C)(C)C(=O)O)cc2)nn(Cc2ccc(C)cc2)c1=O` [Compound 160, 2-(4-(((4-hexyl-1-(4-methylbenzyl)-5-oxo-4,5-dihydro-1H-1,2,4-triazol-3-yl)methoxy)carbonyl)phenylthio)-2-methylpropanoic acid]: the EC50 was in the range of 201 to 999 nM.

Regarding `CCCCCCCn1c(COC(=O)c2ccc(SC(C)(C)C(=O)O)cc2)nn(Cc2ccc(C)cc2)c1=O` [Compound 191, 2-(4-(((4-heptyl-1-(4-methylbenzyl)-5-oxo-4,5-dihydro-1H-1,2,4-triazol-3-yl)methoxy)carbonyl)phenylthio)-2-methylpropanoic acid], the EC50 lay within 51 to 200 nM.
